Patent publication US5328917A, “Piperidine compounds for treating anoxia, cerebral ischemia migraine or epilepsy” (Novo Nordisk A/S, priority 1990, dated 1994)
Counter-ions that a name gives are not always drawn.

Assays:
[1] = tested on: voltage operated calcium channels; assay: Inhibition of depolarization-stimulated 45Ca uptake into brain synaptosomes (crude P2 fraction of cerebral cortex); assay type: biochemical, male Wistar rat; conditions: rat cerebral cortex synaptosomes, KCl-depolarized, corrected for basal uptake, 15 s uptake at 37° C., estimated from dose response curves
From the text: The pharmacological properties of the compounds of the invention can be illustrated by determining their capability to inhibit calcium uptake into brain synaptosomes. Depolarization of neuronal membranes leads to an opening of socalled "voltage operated calcium channels" (VOC) in the membranes which allows a massive influx of calcium from the extracellular space. A crude synaptosomal preparation (socalled P2 fraction) contains small vesicles surrounded by neuronal membrane and it is possible in such a preparation to study a depolarization-induced opening of VOC. In the present model ^45 Ca influx is induced in the synaptosomes by depolarization with elevated potassium concentrations, and the effect of test substances on this stimulated uptake is studied ([…]. and Blaustein, M. P., Mol. […] A male Wistar rat is decapitated and the cerebral cortex removed and homogenized in 10 ml. of ice-cold 0.32M sucrose using a glass homogenizer with a teflon pestle. All subsequent steps for isolation of synaptosomes are done at 0°-4° C. […] This pellet (P2) is resuspended in 0.32M sucrose (5 ml per g of original tissue) with a teflon pestle. […] The tubes are pre-incubated for 30 min on ice and then for 6 min at 37° C. in a water bath. […] The incubation is continued for 15 s. […] The amount of radioactivity on the filter disc is determined by liquid scintillation spectrometry. Test substances are dissolved in 10 ml of 48% ethanol at a concentration of 0.44 mg/ml. Dilution are made in 48% ethanol to give final concentrations of 0.1, 0.3, 1, 3 and 10 μg/ml. Experiments are performed in triplicate. […] The IC50 value is estimated from dose response curves.

[2] = tested on: peripheral calcium uptake, e.g. in blood vessels and the heart; conditions: well known calcium antagonists; cited from earlier work

SMILES: CCCCN1CCC(c2ccccc2)C(CNc2ccc(C(F)(F)F)cc2)C1 (centres unmarked) [Compound 22, 1-butyl-3-(4-trifluoromethylphenylaminomethyl)-4-phenylpiperidine, HCl]
- IC50 (concentration of test substance which inhibits 50% of stimulated uptake of 45Ca) [1]: 4 µg/mL

SMILES: CCCCCN1CC[C@@H](c2ccc(F)cc2)[C@H](COCc2ccc(C(F)(F)F)cc2)C1 (single isomer, unassigned) [Compound 36, (-) trans-4-(4-fluorophenyl)-1-pentyl-3-(4-trifluoromethylbenzyloxymethyl)-piperidine, HCl]
- IC50 (concentration of test substance which inhibits 50% of stimulated uptake of 45Ca) [1]: 6.4 µg/mL

SMILES: CCCCN1CC[C@@H](c2ccc(N(C)C)cc2)[C@H](COc2ccc(Cl)c(Cl)c2)C1 (relative stereo) [Compound 52, (+-) trans 1-butyl-3-(3,4-dichlorophenoxymethyl) 4-(4-dimethylaminophenyl)piperidine, HCl]
- IC50 (concentration of test substance which inhibits 50% of stimulated uptake of 45Ca) [1]: 2.8 µg/mL

SMILES: CCCCN1CC[C@@H](c2ccc(N(C)C)cc2)[C@H](COc2ccc(Cl)cc2)C1 (relative stereo) [Compound 51, (+-) trans 1-butyl-3-(4-chlorophenoxymethyl)-4-(4-dimethylaminophenyl) piperidine, hydrochloride]
- IC50 (concentration of test substance which inhibits 50% of stimulated uptake of 45Ca) [1]: 3.8 µg/mL

SMILES: CCCCN1CC[C@@H](c2ccc(N(C)C)cc2)[C@H](COc2ccc(C(F)(F)F)cc2)C1.Cl.Cl (single isomer, unassigned) [Compound 64, (+)-trans-1-butyl-4-(4-dimethylaminophenyl)-3-(4-trifluoromethylphenoxymethyl)piperidine dihydrochloride]
- IC50 (concentration of test substance which inhibits 50% of stimulated uptake of 45Ca) ([1]; dihydrochloride): 4.2 µg/mL

SMILES: CCCCCN1CC[C@@H](c2ccc(N)cc2)[C@H](COc2ccc3c(c2)OCO3)C1.Cl (single isomer, unassigned) [Compound 10, (+)trans-4-(4-aminophenyl)-3-(3,4-methylenedioxyphenoxymethyl)-1-pentylpiperidine, hydrochloride]
- IC50 (concentration of test substance which inhibits 50% of stimulated uptake of 45Ca) [1]: 8.9 µg/mL

SMILES: CCCCN1CCC(c2ccccc2)C(CNCc2ccc(OC)cc2)C1 (centres unmarked) [Compound 20, 1-butyl-3-(4-methoxybenzylaminomethyl)-4-phenylpiperidine, HCl]
- IC50 (concentration of test substance which inhibits 50% of stimulated uptake of 45Ca) [1]: 2.7 µg/mL

SMILES: COc1ccc([C@@H]2Sc3ccccc3N(CCN(C)C)C(=O)[C@@H]2OC(C)=O)cc1 [Diltiazem]
- activity against peripheral calcium uptake [2]: have activity against peripheral calcium uptake

SMILES: COc1ccc(CCN(C)CCCC(C#N)(c2ccc(OC)c(OC)c2)C(C)C)cc1OC (centres unmarked) [Verapamil]
- activity against peripheral calcium uptake [2]: have activity against peripheral calcium uptake

SMILES: CCCCN1CC[C@@H](c2ccc(N(C)C)cc2)[C@H](COc2ccc(C(F)(F)F)cc2)C1.Cl.Cl (single isomer, unassigned) [Compound 65, (-)-trans-1-butyl-4-(4-dimethylaminophenyl)-3-(4-trifluoromethylphenoxymethyl)piperidine dihydrochloride]
- IC50 (concentration of test substance which inhibits 50% of stimulated uptake of 45Ca) ([1]; dihydrochloride): 6.5 µg/mL

SMILES: CCCCN1CC[C@@H](c2ccc(N(C)C)cc2)[C@H](COc2ccc([N+](=O)[O-])cc2)C1 (relative stereo) [Compound 57, (+-) trans 1-butyl-4-(4-dimethylaminophenyl)-3-(4-nitrophenoxymethyl) piperidine, HCl]
- IC50 (concentration of test substance which inhibits 50% of stimulated uptake of 45Ca) [1]: 3.2 µg/mL

SMILES: CCCCCN1CC[C@@H](c2ccc(F)cc2)[C@H](COCc2cccc(C(F)(F)F)c2)C1 (single isomer, unassigned) [Compound 60, (-)trans-4-(4-fluorophenyl)-1-pentyl-3-(3-trifluoromethylbenzyloxymethyl)-piperidine, HCl]
- IC50 (concentration of test substance which inhibits 50% of stimulated uptake of 45Ca) [1]: 5.5 µg/mL

SMILES: CCCCN1CC[C@@H](c2ccc(N(C)C)cc2)[C@H](COc2ccc3c(c2)OCO3)C1.Cl (racemic) [Compound 15, (+-)trans-1-butyl-4-(4-dimethylaminophenyl)-3-(3,4-methylenedioxyphenoxymethyl)piperidine, hydrochloride]
- IC50 (concentration of test substance which inhibits 50% of stimulated uptake of 45Ca) [1]: 5.0 µg/mL

SMILES: COC(=O)C1=C(C)NC(C)=C(C(=O)OC)C1c1ccccc1[N+](=O)[O-] [Nifedipine]
- activity against peripheral calcium uptake [2]: have activity against peripheral calcium uptake

SMILES: CCCCN1CC[C@@H](c2ccc(N(C)C)cc2)[C@H](COc2cccc(C(F)(F)F)c2)C1.Cl (racemic) [Compound 17, (+-)trans-1-butyl-4-(4-dimethylaminophenyl)-3-(3-trifluoromethylphenoxymethyl)piperidine, hydrochloride]
- IC50 (concentration of test substance which inhibits 50% of stimulated uptake of 45Ca) [1]: 7.4 µg/mL

SMILES: CCCCN1CC[C@@H](c2ccc(N(C)C)cc2)[C@H](COc2ccc(C(F)(F)F)cc2)C1.Cl (racemic) [Compound 11, (+-)trans-1-butyl-4-(4-dimethylaminophenyl)-3-(4-trifluoromethylphenoxymethyl)piperidine, hydrochloride]
- IC50 (concentration of test substance which inhibits 50% of stimulated uptake of 45Ca) [1]: 4.9 µg/mL

SMILES: O=[N+]([O-])c1ccc([C@@H]2CCNC[C@H]2COc2cccc(C(F)(F)F)c2)cc1 (single isomer, unassigned) [Compound 9, (31)trans-4-(4-nitrophenyl)-3-(3-trifluoromethylphenoxymethyl)piperidine, hydrochloride]
- IC50 (concentration of test substance which inhibits 50% of stimulated uptake of 45Ca) [1]: 7.2 µg/mL
